According to patent US20120283269A1, “Method and Compositions for Suppression of Aging” (HEALTH RESEARCH INC., priority 2009, published 2012):

Legend:
HT-p21-9 cells = settings: previously reported (Demidenko 2009); cited from earlier work
mTOR pathway [1] = settings: previously reported (Demidenko 2009); cited from earlier work
WI-38-tert cells = test: Senescence / quiescence in WI-38-tert fibroblasts; type: cell-based, human; settings: compound alone
Experimental: (§1) FIG. 4. […] HT-p21-a cells were treated with IPTG and infected with Ad-p53. After 3 days, cells were photographed (original magnification ×200): Upper panel. Under blue light to visualize cells expressing p53 (green cells). Lower panel. Under visible light to visualize all cells. Red arrows indicate cells lacking p53 expression. All of these cells show large, flat cell morphology. Green arrows indicate cells expressing p53. b-d. […] After 1 day, cells were lysed and immunoblot was performed as described in Methods for Example 1. c. […] Cells were then stained for beta-Gal activity and microphotographed. Scale bar—50 μm.d. […] Cells were then trypsinized and counted. […] Results are shown as percent of control.
FIG. 11. Effects of Ad-p21 and Ad-p53 on senescent morphology in WI-38-tert fibroblasts. WI-38-tert cells were infected with either p21-expressing adenovirus (Ad-p21) or p53-expressing adenovirus (Ad-p53) or both. After 3 days, cells were stained for beta-Gal.
Cell lines and reagents. HT-p21-9 and HT-p21-a cells are derivatives of HT1080 human fibrosarcoma cells, where p21 expression can be turned on or off using isopropyl-thio-galactosidase (IPTG) (7, 16, 28, 29, 36). […] HT-p16 cells are derivatives of HT1080 cells in which p16 expression can be turned on or off using IPTG (16, 36). WI-38-Tert, WI-38 are fibroblasts immortalized by telomerase. HT-p21-GSE56 cells: p53 inhibiting peptide GSE56 (18) was introduced into HT1080 p21-9 cells via a retroviral vector LXSE (37). Cells were grown in high glucose DMEM with 10% FC2 serum. WI-38-tert cells were grown in low glucose DMEM with 10% FCS. Rapamycin was obtained from LC Laboratories (Woburn, Mass.). IPTG (final concentration of 50 μg/ml) and FC2 were obtained from Sigma-Aldrich (St. Louis, Mo.).
Beta-galactosidase staining Beta-gal staining was performed using Senescence-galactosidase staining kit (Cell Signaling Technology).

mTOR pathway [2] = test: Immunoblot for p53, p-S6, p-S6K in WI-38-tert fibroblasts; type: cell-based, human
Experimental: as §1
FIG. 12. […] Immunoblot for p53, p-S6, p-S6K, S6 and actin was performed as described in Methods for Example 1.
Immunoblot analysis. Proteins were separated on 4-15% gradient Tris-HCl gels (Bio-Rad). The following antibodies were used: mouse anti-actin from Santa Cruz Biotechnology, rabbit anti-phospho-S6 (Ser240/244) and (Ser235/236), mouse anti-S6, mouse anti-phospho-p70 S6 kinase (Thr389), mouse anti-p21 and anti-p53, rabbit anti-phospho-4E-BP1 (Thr37/46) from Cell Signaling; mouse anti-4E-BP1 from Invitrogen, mouse anti-p53 (Ab-6) from Calbiochem.

HT-p21 cells [3] = test: Cellular hypertrophy (protein and GFP per cell) in IPTG-treated HT-p21 cells, rapamycin dose response; type: cell-based, human; settings: this particular cell line
Experimental: (§2) FIG. 18. Correlation between S6 phosphorylation, hypertrophy and loss of proliferative potential in senescent cells. HT-p21 cells were plated in 6 well plates and treated with IPTG plus the increasing concentrations of rapamycin (from 0.16 to 500 nM). At concentration 0, cells were treated with IPTG alone. A. Cellular hypertrophy: protein and GFP. After 3 days, soluble protein and GFP were measured per well. [Note: in non-proliferating cells, protein/well is a measure of protein/cells]. Results are shown as percent of IPTG alone (0) without rapamycin. B. After 3 days, cells were lysed and immunobloted for p-S6, S6 and p21.
Cell lines and reagents. In HT-p21 cells, p21 expression can be turned on or off using […] (IPTG). HT-p21 cells were cultured in DMEM medium supplemented with FC2 serum. Rapamycin was obtained from LC Laboratories and dissolved in DMSO as 2 mM solution and was used at final concentration of 500 nM, unless otherwise indicated. IPTG and FC2 were obtained from Sigma-Aldrich (St. Louis, Mo.). IPTG was dissolved in water as 50 mg/ml stock solution and used in cell culture at final concentration of 50 μg/ml.

[4] = tested on: S6 phosphorylation, a marker of mTOR activity; test: Immunoblot for p-S6, S6 and p21 in IPTG-treated HT-p21 cells, rapamycin; type: cell-based, human; settings: IPTG plus rapamycin, 3 days
Experimental: as §2
FIG. 24. Induction of p21 by IPTG. HT-p21 cells were plated in 6 well plates and treated with IPTG with or without rapamycin as indicated. The next day, cells were lysed and immunoblot for p-S6, S and p21 was performed as described in Methods.
Immunoblot analysis. Cells were lysed and soluble proteins were harvested as previously described. […] Cells were counted on a Coulter Z1 cell counter (Hialeah, Fla.). […] Plates were photographed and the number of colonies were determined as previously described. […] Thereafter, cells were washed in PBS, and the number of -galactosidase activity-positive cells (blue staining) were counted under bright field illumination.

HT-p21 cells [5] = test: Preservation of proliferative competence (PC), cell counting after wash; type: cell-based, human
Experimental: C. PC: preservation of proliferative competence. After 3 days, cells were washed to remove IPTG and RAPA. Cells were incubated for additional 5 days in the fresh medium and then were counted. Results are shown as percent of IPTG alone (0) without rapamycin.
FIG. 20. The dynamics of cell numbers. 500 HT-p21 cells were plated in 12 well plates. On the next day, either IPTG alone (I) or IPTG plus rapamycin (I+R) were added. After 3 days, plates were washed (I/w and I+R/w) or left unwashed. Cells were counted at days 1, 3, 6 and 9. Upper panel: linear-scale. Lower panel: log-scale. Open and closed squares: IPTG and IPTG plus Rapa, respectively. Open and closed circles: IPTG washed (I/w) and IPTG plus Rapa washed (I+R/w), respectively.
Immunoblot analysis. Cells were lysed and soluble proteins were harvested as previously described. Immunoblot analysis was performed using mouse monoclonal anti-p21, mouse monoclonal anti-phospho-S6 Ser240/244 (Cell Signaling, MA, USA), rabbit polyclonal anti-S6 (Cell Signaling, MA, USA) and mouse monoclonal anti-tubulin Ab as previously described. Cell counting. Cells were counted on a Coulter Z1 cell counter (Hialeah, Fla.). […] Plates were photographed and the number of colonies were determined as previously described. […] Thereafter, cells were washed in PBS, and the number of -galactosidase activity-positive cells (blue staining) were counted under bright field illumination.

HT-p21 cells [6] = test: Colony formation assay after IPTG with or without rapamycin; type: cell-based, human; settings: IPTG plus rapamycin 3 days, washed; versus IPTG alone

N#CC(=C(/N)Sc1ccccc1N)/C(C#N)=C(\N)Sc1ccccc1N [U0126]
cellular senescence (HT-p21-9 cells): suppress cellular senescence
mTOR pathway in HT-p21-9 cells, measured by phosphorylation of S6 (mTOR pathway [1]): deactivate the mTOR pathway

COc1cccc2c1C(=O)c1c(O)c3c(c(O)c1C2=O)C[C@@](O)(C(=O)CO)C[C@@H]3O[C@H]1C[C@H](N)[C@H](O)[C@H](C)O1 [doxorubicin]
type of arrest in WI-38-tert cells (WI-38-tert cells): caused senescence in WI-38-tert cells
inhibition of mTOR (mTOR pathway [2]): does not inhibit mTOR

CO[C@H]1C[C@@H]2CC[C@@H](C)[C@@](O)(O2)C(=O)C(=O)N2CCCC[C@H]2C(=O)O[C@H]([C@H](C)C[C@@H]2CC[C@@H](O)[C@H](OC)C2)CC(=O)[C@H](C)/C=C(\C)[C@@H](O)[C@@H](OC)C(=O)[C@H](C)C[C@H](C)/C=C/C=C/C=C/1C [rapamycin]
concentration required for anti-hypertrophic effects (HT-p21 cells [3]): 100 to 500 nM
concentrations that inhibited S6 phosphorylation [4]: ≥ 20 nM
doubling time of the competent cells (HT-p21 cells [5]; I/w and I+R/w conditions): 20 to 24 h
PC (preservation of competence) (HT-p21 cells [5]; IPTG plus rapamycin 3 days, washed, 5 more days, percent of IPTG alone): 800%
increase in number of colonies (number of competent cells) (HT-p21 cells [6]): ~10 fold
